Reference: patent US20250136556A1, “NOVEL MODULATORS OF THE ARYL HYDROCARBON RECEPTOR AND METHODS OF USE THEREOF” (Allianthera (Suzhou) Biopharmaceutical Co., Ltd., priority 2021, published 2025)
Read-outs that look alike come from different tables or passages of the source.

Experiments:
[1] = target: T1, Human Aryl Hydrocarbon Receptor (AHR) (Homo sapiens, UniProt P35869); test: AHR agonist reporter assay in human cell line (INDIGO luciferase reporter); format: cell-based; details: reporter cells; for EC50: 24 hours incubation; for AHR % activation to Tapinarof at 1 μM: 24 hours, value in brackets;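 for all read-outs here: firefly luciferase luminescence read on a plate reader, values normalized against positive and negative controls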
T1 construct: purchased INDIGO Bioscience IB06001-32; host or cells: AHR Reporter Cell (proprietary kit cells)
T1 sequence (P35869 11-848): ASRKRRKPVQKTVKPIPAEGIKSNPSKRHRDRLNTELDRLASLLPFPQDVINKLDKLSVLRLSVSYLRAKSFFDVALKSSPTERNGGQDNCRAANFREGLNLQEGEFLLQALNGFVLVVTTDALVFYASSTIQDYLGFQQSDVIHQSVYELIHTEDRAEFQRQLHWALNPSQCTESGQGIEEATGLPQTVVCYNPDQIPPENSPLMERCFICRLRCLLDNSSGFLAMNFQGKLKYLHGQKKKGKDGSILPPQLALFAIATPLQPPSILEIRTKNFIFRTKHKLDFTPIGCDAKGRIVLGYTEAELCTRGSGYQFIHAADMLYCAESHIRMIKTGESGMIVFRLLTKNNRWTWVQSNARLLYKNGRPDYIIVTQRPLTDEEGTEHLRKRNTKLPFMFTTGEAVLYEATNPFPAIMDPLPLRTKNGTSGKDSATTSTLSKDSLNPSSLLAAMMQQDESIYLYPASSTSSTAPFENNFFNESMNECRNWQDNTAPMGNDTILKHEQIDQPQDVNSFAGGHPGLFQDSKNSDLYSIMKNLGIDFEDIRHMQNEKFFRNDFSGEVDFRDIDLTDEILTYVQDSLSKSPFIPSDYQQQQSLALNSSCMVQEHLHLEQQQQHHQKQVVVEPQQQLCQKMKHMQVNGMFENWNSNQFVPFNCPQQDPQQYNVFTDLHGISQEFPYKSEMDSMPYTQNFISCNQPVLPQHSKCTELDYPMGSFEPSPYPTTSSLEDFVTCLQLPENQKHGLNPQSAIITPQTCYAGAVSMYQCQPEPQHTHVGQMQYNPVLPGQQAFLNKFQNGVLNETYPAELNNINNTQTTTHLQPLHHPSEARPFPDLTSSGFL
Description: The AHR reporter assay was performed following the protocol of the Human Aryl Hydrocarbon Receptor (AHR) Reporter Assay System (INDIGO Bioscience, #IB06001-32). AHR Reporter Cell was thawed and pre-incubated in Cell Recovery Medium (CRM) for 6 hours. […] Following 24 hours incubation, the media was removed and Luciferase Detection Reagent (LDR) added. The firefly luciferase activity was quantified using a plate reader. Results were normalized by positive and negative controls.

[2] = test system: IL-6 gene expression in human primary M1 macrophage cells; test: AHR-regulated IL-6 inhibition in human primary M1 macrophage (qPCR); format: cell-based; details: LPS/IFN-gamma/GM-CSF, 24 hours; for IC50: read-out: M1 assay IL6 -IC50
Description: Human M1 macrophage was differentiated from PBMC. Briefly, at day 1, monocytes were isolated from human PBMC using EasySe Human Monocyte Enrichment Kit without CD16 Depletion (Stemcell, 19058). The isolated monocytes were seeded at 3×10^7 cells in 15 cm dish using 30 ml medium containing 50 ng/ml GM-CSF (R&D, 215-GM-050/CF). At day 5, 30 ml fresh medium containing 50 ng/ml GM-CSF was added. At day 8, 1.5×10^5 cells/well were re-seeded into 24 wells plate, and 500 ul medium containing 10 ng/ml LPS (Sigma, L7770), 20 ng/ml IFN-gamma (PeproTech, 300-02), 50 ng/ml GM-CSF and the test compounds was added. […] The IL-6 expression was inhibited with AHR agonists described in literature as the positive inhibition control, alternatively the un-stimulated cells were used as the negative inhibition control. […] The primers for human GAPDH (F: […]; R: […]) and human IL-6 (F: […]; R: […]) were used to analyze fold expression of IL-6 of GAPDH by quantitative PCR.

[3] = test system: Human Nuclear Factor (erythroid-derived2)-like 2 (Nrf2); test: Nrf2 transcription factor activity reporter assay in human cell line (INDIGO luciferase reporter); format: cell-based; details: reporter cells; for EC50: 24 hours incubation; for Nrf2 % activation to Tapinarof at 9 μM: 24 hours, value in brackets
Description: The Nrf2 reporter assay was performed following the protocol of the Human Nuclear Factor (erythroid-derived2)-like 2 (Nrf2) Reporter Assay System (INDIGO Bioscience, #IB10001). Nrf2 Reporter Cell was thawed and pre-incubated in Cell Recovery Medium (CRM) for 6 hours. The media was then removed and the cells were incubated with Compound Screening Medium (CSM) in the absence (negative control) or presence of increasing concentrations of test compounds (typical dilution: 128 pM, 640 pM, 3.2 nM, 16 nM, 80 nM, 400 nM, […] in duplicates) for 24 hours. For positive control, cells activated with CDDO or Nrf2 agonists described in literature. Following 24 hours incubation, the media was removed and Luciferase Detection Reagent (LDR) added. The firefly luciferase activity was quantified using a plate reader. Results were normalized by positive and negative controls.

[4] = test system: AHR-regulated gene CYP1A1; test: AHR-regulated CYP1A1 expression in human monocytic U937 cell line (qPCR); details: U937 cells, 16 hours, CYP1A1 relative to GAPDH
Description: To evaluate the AHR agonist activity of the test compounds, quantitative PCR analysis was used to determine expression level of the AHR-regulated gene CYP1A1 in a human monocytic U937 cell line. U937 cells were seeded at a concentration of 5×10^5 cells/well in 200 μL of growth medium in 96-well cell culture microplates. CYP1A1 expression was induced with AHR agonists described in literature as a positive control or the test compounds for 16 hours. […] Unstimulated cells were used as the negative control. Taqman probes for human CYP1A1 (Hs01054797_g1) and human GAPDH (Hs02786624_g1) were used to analyze fold expression of CYP1A1 of GAPDH.

[5] = second line of cell, read-out: AHR abEC50
[6] = first line of cell, read-out: Nrf2 reEC50
[7] = second line of cell, read-out: Nrf2 EC50, second line of cell (head does not name it)
[8] = first line of cell, read-out: AHR reEC50

Row | EC50 [1, 5] [nM] | EC50 [3, 6] [nM] | EC50 [3, 7] [nM] | EC50 [1, 8] [nM] | AHR % activation to Tapinarof at 1 μM [1] [%] | CYP1A1 (% activation to Tapinarof at 1 μM) [4] [%] | SMILES | M1 assay IL6 -max % inhibition (% to no treatment) [2] [%] | IC50 [2] [nM] | Nrf2 % activation to Tapinarof at 9 μM [3] [%]
1 | 39 | 16.3 | 166 | 72.7 | 95.8 | 95.3 | CC(C)c1c(O)cc(-c2cc3ccccc3cn2)cc1O [Compound 46] | – | – | 69.3
2 | 4.21 | – | 530 | – | – | – | CC(C)c1c(O)cc(-c2ccc3ccccc3n2)cc1O [Compound 47] | – | – | –
3 | 57.5 | 14.5 | 29.6 | 64.3 | 69.5 | 78.4 | CC(C)c1c(O)cc(-c2cnc3ccccc3c2)cc1O [Compound 48] | 89.60 | 3 | 84.4
4 | 17.4 | – | 20 | – | – | – | CC(C)c1c(O)cc(-c2nc3ccccc3[nH]2)cc1O [Compound 50] | – | – | –
5 | 569 | 249 | 501 | 1620 | 62.6 | 78.9 | CC(C)c1ncc(-c2cc3ccccc3cn2)cc1O [Compound 97] | – | – | 67.2
6 | 403 | 40 | 139 | 176000 | 71.2 | 83.6 | CC(C)c1ncc(-c2ccc3ccccc3n2)cc1O [Compound 98] | – | – | 83.6
7 | > 100 | – | 100 | – | – | – | CC(C)c1ncc(-c2cnc3ccccc3c2)cc1O [Compound 99] | – | – | –
8 | > 1000 | 200 | 890 | 21.9 | 49.7 | 90.5 | CC(C)c1ncc(-c2nc3ccccc3o2)cc1O [Compound 100] | – | – | 62.3
9 | – | 125 | 129 | 66 | 16.4 | 0.4 | CC(C)c1ncc(-c2ccc3ccccc3n2)cc1N [Compound 119, 2-isopropyl-5-(quinolin-2-yl)pyridin-3-amine] | – | – | 97.8
10 | > 100 | – | 120 | – | – | – | CC(C)c1ncc(-c2nc3ccccc3o2)cc1N [Compound 121, 5-(1,3-benzoxazol-2-yl)-2-isopropylpyridin-3-amine] | – | – | –

Further lines, the compound ahead of its results:

Row | SMILES | EC50 [1, 5] [nM] | EC50 [3, 6] [nM] | EC50 [3, 7] [nM] | EC50 [1, 8] [nM] | AHR % activation to Tapinarof at 1 μM [1] [%] | CYP1A1 (% activation to Tapinarof at 1 μM) [4] [%] | M1 assay IL6 -max % inhibition (% to no treatment) [2] [%] | IC50 [2] [nM] | Nrf2 % activation to Tapinarof at 9 μM [3] [%]
11 | Cc1ccnc2cc(-c3cc(O)c(C(C)C)c(O)c3)ccc12 [Compound 22] | 2.12 | – | – | – | – | – | 77.20 | 0.05 | –
12 | CC(C)c1c(O)cc(-c2cc(F)c3cnc(N)nc3c2)cc1O [Compound 39] | 3.58 | – | – | – | – | – | 89.60 | 0.2 | –
13 | CC(C)Oc1cc(/C=C/c2ccccc2)cc(O)n1 [Compound 106, (E)-6-isopropoxy-4-styrylpyridin-2-ol] | 343 | – | > 400 | – | – | – | – | – | –
14 | COc1cc(/C=C/c2ccccc2)cc(OC)c1C(C)=O [Compound 107, 1-{2,6-dimethoxy-4-[(E)-2-phenylethenyl]phenyl} ethenone] | > 100 | – | > 100 | – | – | – | – | – | –
15 | C=C(C)c1c(OC)cc(/C=C/c2ccccc2)cc1OC [Compound 110, 1,3-dimethoxy-5-[(E)-2-phenylethenyl]-2-(prop-1-en-2-yl)benzene] | > 100 | – | > 100 | – | – | – | – | – | –
16 | COc1cc(/C=C/c2ccccc2)cc(O)c1C(C)(C)O [Compound 111] | 39 | – | 57 | – | – | – | – | – | –
17 | CC(C)c1ncc(/C=C/c2ccccc2F)cc1O [Compound 112, 5-[(E)-2-(2-fluorophenyl)ethenyl]-2-isopropylpyridin-3-ol] | 99 | – | 97 | – | – | – | 77.90 | 1.57 | –
18 | CC(C)c1ncc(/C=C/c2cccc(F)c2)cc1O [Compound 113, (E)-5-(3-fluorostyryl)-2-isopropylpyridin-3-ol] | 298 | – | – | – | – | – | 67.80 | 120 | –
19 | CC(C)c1ncc(/C=C/c2ccc(F)cc2)cc1O [Compound 114, 5-[(E)-2-(4-fluorophenyl)ethenyl]-2-isopropylpyridin-3-ol] | 120 | – | 19 | 143 | 88.5 | – | – | – | –
20 | COc1cc(-c2nc3ccccc3o2)cc(O)c1C(C)C [Compound 122, 5-(benzo[d]oxazol-2-yl)-2-isopropyl-3-methoxyphenol] | 395 | 2640 | – | 254 | 64.4 | 39.3 | – | – | 25.7
21 | CCCc1c(O)cc(/C=C/c2ccccc2)cc1F [Compound 125, 3-fluoro-5-[(E)-2-phenylethenyl]-2-propylphenol] | 11.5 | – | – | – | – | – | 91.70 | 1.35 | –
22 | COc1cc(Oc2ccccc2)cc(O)c1C(C)C [Compound 133, 2-isopropyl-3-methoxy-5-phenoxyphenol] | 233 | – | > 400 | – | – | – | – | – | –
23 | CC(C)c1c(O)cc(/C=C/c2ccccc2)cc1F [Compound 135] | 38.6 | – | – | – | – | – | 95.30 | 1.7 | –
24 | CC(C)c1c(O)cc(-c2ccc3cnccc3c2F)cc1F [Compound 139] | – | – | – | – | – | – | 85.80 | 5 | –
25 | CC(C)c1c(O)cc(-c2ccc3ncccc3c2F)cc1F [Compound 140] | – | – | – | – | – | – | 92.30 | 0.13 | –
26 | CC(C)c1c(O)cc(-c2ccc3cc(F)ccc3n2)cc1F [Compound 143] | – | – | – | – | – | – | 91.80 | 2.7 | –
27 | CC(C)c1c(O)cc(-c2cc(F)c3ncccc3c2)cc1F [Compound 145] | – | – | – | – | – | – | 94.10 | 1.9 | –
28 | Cc1ccnc2cc(-c3cc(O)c(C(C)C)c(F)c3)ccc12 [Compound 147] | – | – | – | – | – | – | 91.60 | 0.03 | –
29 | CC(C)c1c(O)cc(-c2cc(F)c3cnc(N)nc3c2)cc1F [Compound 149] | – | – | – | – | – | – | 91.10 | 0.5 | –
30 | CCCc1c(O)cc(-c2cnc3c(F)c(F)ccc3c2)cc1F [Compound 155] | – | – | – | – | – | – | 89.10 | 3.5 | –
31 | CCCc1c(O)cc(-c2ccc3c(C)ccnc3c2)cc1F [Compound 161] | – | – | – | – | – | – | 91.30 | 1.19 | –
32 | CC(C)c1c(O)cc(/C=C/c2ccccc2)cc1O [Tapinarof, reference compound] | – | 55 to 75 | – | – | 100 | 100 | – | – | –
